Numbers after ± are expanded uncertainties.
Test: molar heat capacity at constant pressure; xn = mol fraction of the nth substance listed
Conditions: 101 kPa, Liquid, Small sample (50 mg) DSC

BrCCBr [1,2-dibromoethane] + CCCCCCC
molar heat capacity at constant pressure [J/K/mol]
Conditions	x1 = 0.1016	x1 = 0.2016	x1 = 0.2989	x1 = 0.3977	x1 = 0.4996	x1 = 0.5991	x1 = 0.6928	x1 = 0.8022	x1 = 0.9003	x1 = 1
303.15 K	–	–	–	–	–	172.23 ± 2.7	163.89 ± 2.5	154.24 ± 2.4	145.65 ± 2.3	137.25 ± 2.1
304.15 K	217.33 ± 3.4	207.57 ± 3.2	199.17 ± 3.1	190.33 ± 3	181.4 ± 2.8	172.31 ± 2.7	163.94 ± 2.5	154.32 ± 2.4	145.75 ± 2.3	137.29 ± 2.1
305.15 K	217.7 ± 3.4	207.95 ± 3.2	199.39 ± 3.1	190.62 ± 3	181.54 ± 2.8	172.49 ± 2.7	164.06 ± 2.5	154.37 ± 2.4	145.77 ± 2.3	137.32 ± 2.1
306.15 K	218.07 ± 3.4	208.28 ± 3.2	199.58 ± 3.1	190.75 ± 3	181.72 ± 2.8	172.71 ± 2.7	164.29 ± 2.5	154.55 ± 2.4	145.83 ± 2.3	137.39 ± 2.1
307.15 K	218.39 ± 3.4	208.47 ± 3.2	199.9 ± 3.1	191.03 ± 3	181.95 ± 2.8	172.88 ± 2.7	164.4 ± 2.5	154.6 ± 2.4	145.96 ± 2.3	137.42 ± 2.1
308.15 K	218.69 ± 3.4	208.8 ± 3.2	200.2 ± 3.1	191.31 ± 3	182.17 ± 2.8	173 ± 2.7	164.48 ± 2.5	154.68 ± 2.4	146.01 ± 2.3	137.49 ± 2.1
309.15 K	219.1 ± 3.4	209.1 ± 3.2	200.37 ± 3.1	191.5 ± 3	182.37 ± 2.8	173.19 ± 2.7	164.7 ± 2.5	154.79 ± 2.4	146.13 ± 2.3	137.53 ± 2.1
310.15 K	219.41 ± 3.4	209.5 ± 3.2	200.65 ± 3.1	191.66 ± 3	182.48 ± 2.8	173.29 ± 2.7	164.8 ± 2.5	154.9 ± 2.4	146.2 ± 2.3	137.6 ± 2.1
311.15 K	219.69 ± 3.4	209.78 ± 3.2	200.99 ± 3.1	191.91 ± 3	182.68 ± 2.8	173.5 ± 2.7	164.88 ± 2.5	155 ± 2.4	146.21 ± 2.3	137.65 ± 2.1
312.15 K	220.11 ± 3.4	210.1 ± 3.3	201.15 ± 3.1	192.12 ± 3	182.91 ± 2.8	173.69 ± 2.7	165.06 ± 2.6	155.16 ± 2.4	146.3 ± 2.3	137.71 ± 2.1
313.15 K	220.35 ± 3.4	210.39 ± 3.3	201.51 ± 3.1	192.42 ± 3	183.06 ± 2.8	173.84 ± 2.7	165.16 ± 2.6	155.25 ± 2.4	146.43 ± 2.3	137.77 ± 2.1

Source: the NIST ThermoML archive (doi:10.1021/je0603325)
